Article PMC6986443, “T‐495, a novel low cooperative M1 receptor positive allosteric modulator, improves memory deficits associated with cholinergic dysfunction and is characterized by low gastrointestinal side effect risk” (Pharmacology Research & Perspectives, 2020)

Key:
[1] = tested on: ATPase, Ca2+, Skeletal Muscle; assay: Selectivity panel; type: biochemical
Text: (§1) The selectivity of T‐495 at 10 μmol/L against a panel of 106 targets, including receptors, enzymes, ion channels, and transporters, was characterized (Eurofins Panlabs Taiwan Ltd., Taipei, Taiwan).

ATPase, Na+/K+, Heart = assay: Selectivity panel; type: biochemical
Text: as §1

Carbonic anhydrase II = target: T1, Carbonic anhydrase II (Homo sapiens, UniProt P00918); assay: Selectivity panel; type: biochemical
T1 construct: purchased Eurofins Panlabs Taiwan Ltd
Text: as §1

[2] = tested on: Catechol-O-Methyl Transferase (COMT); assay: Selectivity panel; type: biochemical
Text: as §1

[3] = target: T2, Choline esterase, acetyl, ACES (Homo sapiens, UniProt P22303); assay: Selectivity panel; type: biochemical
T2 construct: purchased Eurofins Panlabs Taiwan Ltd
T2 sequence (P22303 32-614): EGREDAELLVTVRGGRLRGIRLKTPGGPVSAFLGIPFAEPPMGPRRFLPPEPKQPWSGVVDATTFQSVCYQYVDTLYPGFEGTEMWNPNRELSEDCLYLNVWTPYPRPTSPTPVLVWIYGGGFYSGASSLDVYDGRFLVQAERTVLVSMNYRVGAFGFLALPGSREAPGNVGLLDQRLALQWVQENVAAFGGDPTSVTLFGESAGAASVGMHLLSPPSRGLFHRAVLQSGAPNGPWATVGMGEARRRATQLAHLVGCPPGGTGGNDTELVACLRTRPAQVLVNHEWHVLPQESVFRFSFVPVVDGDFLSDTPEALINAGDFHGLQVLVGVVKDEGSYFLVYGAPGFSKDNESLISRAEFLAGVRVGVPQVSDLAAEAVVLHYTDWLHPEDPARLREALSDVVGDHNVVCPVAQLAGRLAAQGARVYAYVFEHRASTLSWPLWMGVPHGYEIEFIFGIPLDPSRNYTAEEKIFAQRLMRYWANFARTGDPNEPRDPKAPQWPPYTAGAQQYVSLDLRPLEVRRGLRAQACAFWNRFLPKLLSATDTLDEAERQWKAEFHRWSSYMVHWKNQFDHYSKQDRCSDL
Text: as §1

Cyclooxygenase-2 (COX-2) = target: T3, Cyclooxygenase-2 (COX-2) (Homo sapiens, UniProt P35354); assay: Selectivity panel; type: biochemical
T3 construct: purchased Eurofins Panlabs Taiwan Ltd
Text: as §1

[4] = target: T4, Matrix metalloproteinase-1 (MMP-1) (Homo sapiens, UniProt P03956); assay: Selectivity panel; type: biochemical
T4 construct: purchased Eurofins Panlabs Taiwan Ltd
Text: as §1

[5] = target: T5, Metalloproteinase, Neutral Endopeptidase (Homo sapiens, UniProt P08473); assay: Selectivity panel; type: biochemical
T5 construct: purchased Eurofins Panlabs Taiwan Ltd
T5 sequence (P08473 whole entry): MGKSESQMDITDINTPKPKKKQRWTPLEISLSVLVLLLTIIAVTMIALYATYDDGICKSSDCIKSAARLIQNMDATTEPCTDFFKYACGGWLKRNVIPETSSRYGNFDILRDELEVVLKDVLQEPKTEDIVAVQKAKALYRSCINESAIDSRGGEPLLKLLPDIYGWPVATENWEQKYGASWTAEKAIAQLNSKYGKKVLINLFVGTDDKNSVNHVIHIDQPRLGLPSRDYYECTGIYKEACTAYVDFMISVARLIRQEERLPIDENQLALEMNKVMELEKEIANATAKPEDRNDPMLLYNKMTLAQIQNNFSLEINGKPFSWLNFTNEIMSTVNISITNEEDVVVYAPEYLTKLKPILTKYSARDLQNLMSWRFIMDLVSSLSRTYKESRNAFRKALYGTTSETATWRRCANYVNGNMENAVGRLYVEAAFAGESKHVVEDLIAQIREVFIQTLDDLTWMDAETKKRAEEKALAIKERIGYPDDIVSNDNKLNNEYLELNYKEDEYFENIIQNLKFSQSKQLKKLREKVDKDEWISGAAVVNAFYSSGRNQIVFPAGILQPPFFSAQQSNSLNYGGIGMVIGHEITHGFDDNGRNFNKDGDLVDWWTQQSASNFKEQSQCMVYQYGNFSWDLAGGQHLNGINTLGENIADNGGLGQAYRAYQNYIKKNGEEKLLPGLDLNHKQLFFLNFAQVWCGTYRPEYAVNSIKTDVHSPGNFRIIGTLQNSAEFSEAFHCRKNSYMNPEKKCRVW
Text: as §1

[6] = target: T6, Monoamine oxidase A (MAO-A) (Homo sapiens, UniProt P21397); assay: Selectivity panel; type: biochemical
T6 construct: purchased Eurofins Panlabs Taiwan Ltd
Text: as §1

[7] = target: T7, Monoamine oxidase B (MAO-B) (Homo sapiens, UniProt P27338); assay: Selectivity panel; type: biochemical
T7 construct: purchased Eurofins Panlabs Taiwan Ltd
T7 sequence (P27338 whole entry): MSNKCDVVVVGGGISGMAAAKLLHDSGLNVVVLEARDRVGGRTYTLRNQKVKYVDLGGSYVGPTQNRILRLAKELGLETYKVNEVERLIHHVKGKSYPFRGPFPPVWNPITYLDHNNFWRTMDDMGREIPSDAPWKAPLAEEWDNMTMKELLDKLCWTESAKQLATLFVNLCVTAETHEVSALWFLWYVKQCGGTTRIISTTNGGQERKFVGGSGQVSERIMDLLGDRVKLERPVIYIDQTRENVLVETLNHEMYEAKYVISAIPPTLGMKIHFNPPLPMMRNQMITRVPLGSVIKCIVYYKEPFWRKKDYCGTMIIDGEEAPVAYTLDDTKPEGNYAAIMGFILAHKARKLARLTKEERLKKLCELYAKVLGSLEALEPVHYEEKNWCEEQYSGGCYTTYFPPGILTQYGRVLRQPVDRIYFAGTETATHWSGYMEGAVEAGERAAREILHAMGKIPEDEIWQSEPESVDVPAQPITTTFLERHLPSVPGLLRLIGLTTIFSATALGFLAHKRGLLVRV
Text: as §1

[8] = target: T8, Nitric oxide synthase, inducible (iNOS) (Mus musculus, UniProt P29477); assay: Selectivity panel; type: biochemical
T8 construct: purchased Eurofins Panlabs Taiwan Ltd
Text: as §1

[9] = target: T9, Nitric oxide synthase, neuronal (nNOS) (Rattus norvegicus, UniProt P29476); assay: Selectivity panel; type: biochemical
T9 construct: purchased Eurofins Panlabs Taiwan Ltd
Text: as §1

Peptidase, factor Xa = target: T10, Peptidase, factor Xa (Homo sapiens, UniProt P00742); assay: Selectivity panel; type: biochemical
T10 construct: purchased Eurofins Panlabs Taiwan Ltd
Text: as §1

[10] = target: T11, Phosphodiesterase PDE10A2 (Homo sapiens, UniProt Q9Y233); assay: Selectivity panel; type: biochemical
T11 construct: purchased Eurofins Panlabs Taiwan Ltd
Text: as §1

Phosphodiesterase PDE3 = assay: Selectivity panel; type: biochemical
Text: as §1

Phosphodiesterase PDE4D2 = target: T12, Phosphodiesterase PDE4D2 (Homo sapiens, UniProt Q08499); assay: Selectivity panel; type: biochemical
T12 construct: purchased Eurofins Panlabs Taiwan Ltd
Text: as §1

Phosphodiesterase PDE4 = assay: Selectivity panel; type: biochemical
Text: as §1

Phosphodiesterase PDE5 = target: T13, Phosphodiesterase PDE5 (Homo sapiens, UniProt O76074); assay: Selectivity panel; type: biochemical
T13 construct: purchased Eurofins Panlabs Taiwan Ltd
Text: as §1

Phosphodiesterase PDE6 = target: T14, Phosphodiesterase PDE6 (Bos taurus, UniProt P11541+P23439); assay: Selectivity panel; type: biochemical
T14 construct: purchased Eurofins Panlabs Taiwan Ltd
Text: as §1

[11] = tested on: Protein kinase C (PKC), non-selective; assay: Selectivity panel; type: biochemical
Text: as §1

[12] = target: T15, Protein tyrosine kinase, EGF receptor (Homo sapiens, UniProt P00533); assay: Selectivity panel; type: biochemical
T15 construct: purchased Eurofins Panlabs Taiwan Ltd
Text: as §1

Steroid 5α-reductase = assay: Selectivity panel; type: biochemical
Text: as §1

Xanthine oxidase = target: T16, Xanthine oxidase (Bos taurus, UniProt P80457); assay: Selectivity panel; type: biochemical
T16 construct: purchased Eurofins Panlabs Taiwan Ltd
T16 sequence (P80457 2-1332 limits assumed): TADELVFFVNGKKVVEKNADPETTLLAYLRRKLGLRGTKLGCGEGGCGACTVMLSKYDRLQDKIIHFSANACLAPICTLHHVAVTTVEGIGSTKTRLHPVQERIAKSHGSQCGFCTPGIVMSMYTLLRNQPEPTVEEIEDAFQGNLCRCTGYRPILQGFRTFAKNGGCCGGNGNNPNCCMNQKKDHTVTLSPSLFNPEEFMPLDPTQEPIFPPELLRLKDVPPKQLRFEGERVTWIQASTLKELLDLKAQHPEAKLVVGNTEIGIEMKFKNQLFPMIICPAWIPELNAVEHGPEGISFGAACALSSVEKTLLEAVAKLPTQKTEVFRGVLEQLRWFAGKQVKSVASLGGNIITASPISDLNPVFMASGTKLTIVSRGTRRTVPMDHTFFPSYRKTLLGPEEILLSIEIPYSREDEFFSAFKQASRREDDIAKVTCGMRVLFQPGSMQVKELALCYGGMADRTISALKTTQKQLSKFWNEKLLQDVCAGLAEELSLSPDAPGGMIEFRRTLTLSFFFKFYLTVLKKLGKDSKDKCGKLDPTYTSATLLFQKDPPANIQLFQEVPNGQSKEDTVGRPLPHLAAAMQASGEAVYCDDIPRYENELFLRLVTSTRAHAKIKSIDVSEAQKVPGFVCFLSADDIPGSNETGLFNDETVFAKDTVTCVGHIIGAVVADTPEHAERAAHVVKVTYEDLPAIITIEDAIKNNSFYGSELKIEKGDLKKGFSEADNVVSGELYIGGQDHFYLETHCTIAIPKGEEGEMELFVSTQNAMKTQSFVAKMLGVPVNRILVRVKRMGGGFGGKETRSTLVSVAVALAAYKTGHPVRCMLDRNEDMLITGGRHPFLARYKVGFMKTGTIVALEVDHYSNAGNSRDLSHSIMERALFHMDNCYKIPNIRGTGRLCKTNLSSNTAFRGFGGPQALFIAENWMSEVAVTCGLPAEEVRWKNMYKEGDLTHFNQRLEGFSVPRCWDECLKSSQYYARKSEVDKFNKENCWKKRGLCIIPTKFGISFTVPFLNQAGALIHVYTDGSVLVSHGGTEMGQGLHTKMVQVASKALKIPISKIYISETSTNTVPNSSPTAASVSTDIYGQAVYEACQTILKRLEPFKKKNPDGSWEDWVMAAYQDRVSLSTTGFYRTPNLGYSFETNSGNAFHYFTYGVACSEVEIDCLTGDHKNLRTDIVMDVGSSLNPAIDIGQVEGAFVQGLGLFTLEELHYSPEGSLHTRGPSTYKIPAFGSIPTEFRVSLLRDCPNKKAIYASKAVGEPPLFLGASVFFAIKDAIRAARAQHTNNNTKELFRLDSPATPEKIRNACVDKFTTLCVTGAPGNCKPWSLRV
Text: as §1

[13] = tested on: Adrenergic α1, non-selective; assay: Selectivity panel; type: binding
Text: as §1

[14] = tested on: Calcium channel L-type, phenylalkylamine; assay: Selectivity panel; type: binding
Text: as §1

Dopamine D2S = target: T17, Dopamine D2S (Homo sapiens, UniProt P14416); assay: Selectivity panel; type: binding
T17 construct: purchased Eurofins Panlabs Taiwan Ltd
Text: as §1

Dopamine D3 = target: T18, Dopamine D3 (Homo sapiens, UniProt P35462); assay: Selectivity panel; type: binding
T18 construct: purchased Eurofins Panlabs Taiwan Ltd
Text: as §1

GABAA, chloride channel = assay: Selectivity panel; type: binding
Text: as §1

[15] = tested on: GABAA, flunitrazepam, central; assay: Selectivity panel; type: binding
Text: as §1

GABAB1B = target: T19, GABAB1B (Homo sapiens, UniProt Q9UBS5); assay: Selectivity panel; type: binding
T19 construct: purchased Eurofins Panlabs Taiwan Ltd
T19 sequence (Q9UBS5 1-844 isoform Q9UBS5-2): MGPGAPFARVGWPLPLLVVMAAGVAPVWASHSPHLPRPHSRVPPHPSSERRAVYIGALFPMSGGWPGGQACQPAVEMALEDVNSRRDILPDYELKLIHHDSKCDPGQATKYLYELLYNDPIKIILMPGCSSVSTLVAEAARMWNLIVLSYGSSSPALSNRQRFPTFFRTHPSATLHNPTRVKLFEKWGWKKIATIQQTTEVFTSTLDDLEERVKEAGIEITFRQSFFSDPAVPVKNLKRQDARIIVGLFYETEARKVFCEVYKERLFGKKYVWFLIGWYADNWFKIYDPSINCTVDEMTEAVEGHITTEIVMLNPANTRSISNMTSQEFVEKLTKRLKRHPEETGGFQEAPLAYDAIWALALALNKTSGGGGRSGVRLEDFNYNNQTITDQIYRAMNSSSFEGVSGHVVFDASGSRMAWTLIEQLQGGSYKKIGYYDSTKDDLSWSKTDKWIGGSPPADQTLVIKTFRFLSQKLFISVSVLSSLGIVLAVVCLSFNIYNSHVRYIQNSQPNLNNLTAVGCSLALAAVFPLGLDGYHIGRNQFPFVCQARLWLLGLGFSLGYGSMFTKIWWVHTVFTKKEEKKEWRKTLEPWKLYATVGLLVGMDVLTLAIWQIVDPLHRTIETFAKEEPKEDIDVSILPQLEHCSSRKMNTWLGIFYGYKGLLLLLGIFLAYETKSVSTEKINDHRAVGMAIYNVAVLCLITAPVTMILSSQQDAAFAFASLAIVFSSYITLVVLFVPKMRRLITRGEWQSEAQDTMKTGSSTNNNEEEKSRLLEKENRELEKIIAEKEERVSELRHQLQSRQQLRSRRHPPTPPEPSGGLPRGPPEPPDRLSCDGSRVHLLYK
T19 sequence (O75899 42-941 partner): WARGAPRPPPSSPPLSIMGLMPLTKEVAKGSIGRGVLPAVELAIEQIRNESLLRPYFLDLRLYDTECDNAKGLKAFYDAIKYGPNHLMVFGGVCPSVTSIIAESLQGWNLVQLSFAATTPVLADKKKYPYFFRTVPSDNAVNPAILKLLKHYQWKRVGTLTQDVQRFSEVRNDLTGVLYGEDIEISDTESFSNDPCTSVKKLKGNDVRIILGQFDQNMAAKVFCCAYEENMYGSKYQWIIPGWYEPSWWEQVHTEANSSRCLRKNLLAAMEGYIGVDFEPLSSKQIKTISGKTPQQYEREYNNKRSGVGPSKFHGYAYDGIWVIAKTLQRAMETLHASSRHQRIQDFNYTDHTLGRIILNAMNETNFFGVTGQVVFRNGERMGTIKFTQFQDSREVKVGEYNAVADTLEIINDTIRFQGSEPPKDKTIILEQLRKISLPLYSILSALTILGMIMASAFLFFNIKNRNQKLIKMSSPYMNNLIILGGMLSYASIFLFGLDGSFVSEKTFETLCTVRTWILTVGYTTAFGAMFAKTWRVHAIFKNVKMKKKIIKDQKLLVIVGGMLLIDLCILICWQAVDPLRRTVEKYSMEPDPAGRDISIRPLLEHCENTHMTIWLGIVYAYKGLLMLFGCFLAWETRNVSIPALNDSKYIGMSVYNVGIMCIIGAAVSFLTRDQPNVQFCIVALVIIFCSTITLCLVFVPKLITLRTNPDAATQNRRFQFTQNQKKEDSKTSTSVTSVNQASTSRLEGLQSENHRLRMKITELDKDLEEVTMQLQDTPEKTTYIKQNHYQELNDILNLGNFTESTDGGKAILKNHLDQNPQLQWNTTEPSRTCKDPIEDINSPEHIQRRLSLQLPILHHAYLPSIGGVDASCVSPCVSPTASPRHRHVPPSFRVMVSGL
Text: as §1

Serotonin 5-HT2A = target: T20, Serotonin 5-HT2A (Homo sapiens, UniProt P28223); assay: Selectivity panel; type: binding
T20 construct: purchased Eurofins Panlabs Taiwan Ltd
Text: as §1

Transporter, GABA = assay: Selectivity panel; type: binding
Text: as §1

[16] = target: T21, Transporter, serotonin (SERT) (Homo sapiens, UniProt P31645); assay: Selectivity panel; type: binding
T21 construct: purchased Eurofins Panlabs Taiwan Ltd
Text: as §1

human M1R = target: T22, human M1R (Homo sapiens, UniProt P11229); assay: [3H]‐NMS binding assay; parameters: expressed in transfected cells
T22 sequence (P11229 1-460): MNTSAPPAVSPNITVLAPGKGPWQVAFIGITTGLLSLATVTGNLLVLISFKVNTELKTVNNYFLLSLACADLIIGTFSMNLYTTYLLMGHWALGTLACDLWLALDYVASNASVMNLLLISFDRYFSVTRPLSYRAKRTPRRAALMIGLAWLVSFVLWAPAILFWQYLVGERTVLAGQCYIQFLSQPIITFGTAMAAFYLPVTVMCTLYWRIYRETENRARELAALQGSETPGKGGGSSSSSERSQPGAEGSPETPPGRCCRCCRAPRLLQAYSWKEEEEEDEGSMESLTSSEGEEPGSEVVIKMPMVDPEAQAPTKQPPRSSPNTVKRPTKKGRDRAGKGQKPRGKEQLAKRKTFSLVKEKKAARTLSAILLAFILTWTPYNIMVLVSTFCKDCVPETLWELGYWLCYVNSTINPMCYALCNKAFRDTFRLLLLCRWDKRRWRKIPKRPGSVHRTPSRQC
Protocol: Cell membranes from FreeStyle 293 cells transiently expressing human M1R were incubated with T‐495 (0.01‐30 μmol/L) and 0.2 nmol/L [^3H]‐NMS (PerkinElmer) in assay buffer as described above. After 2 hours at room temperature, the binding was terminated by filtration through GF/C filter plates using a cell harvester and washed five times with 300 μl of 50 mmol/L Tris‐HCl. GF/C plates were dried at 42°C and then 25 μl of microscint 0 was added. Radioactivity was measured by Topcount.

Q: What does the source list for `Cc1c(Cc2ccc(Cl)nc2)cc2c(c1Cl)OCN([C@H]1CCC[C@@H]1O)C2=O` [T‐495, 8‐chloro‐6‐((6‐chloropyridin‐3‐yl)methyl)‐3‐((1S,2S)‐2‐hydroxycyclopentyl)‐7‐methyl‐2,3‐dihydro‐4H‐1,3‐benzoxazin‐4‐one]?
A: % inhibition at 10 μM [1]: 0%; % inhibition at 10 μM (ATPase, Na+/K+, Heart): 4%; inhibition at 10 µM (Carbonic anhydrase II): -9%; % inhibition at 10 μM [2]: 2%; inhibition at 10 µM [3]: -2%; inhibition at 10 µM (Cyclooxygenase-2 (COX-2)): 31%; inhibition at 10 µM [4]: 5%; inhibition at 10 µM [5]: 10%; inhibition at 10 µM [6]: 36%; inhibition at 10 µM [7]: 6%; inhibition at 10 µM [8]: 0%; inhibition at 10 µM [9]: 5%; inhibition at 10 µM (Peptidase, factor Xa): -2%; inhibition at 10 µM [10]: 5%; % inhibition at 10 μM (Phosphodiesterase PDE3): 2%; inhibition at 10 µM (Phosphodiesterase PDE4D2): 2%; % inhibition at 10 μM (Phosphodiesterase PDE4): 22%; inhibition at 10 µM (Phosphodiesterase PDE5): 48%; inhibition at 10 µM (Phosphodiesterase PDE6): 6%; % inhibition at 10 μM [11]: 0%; inhibition at 10 µM [12]: 9%; % inhibition at 10 μM (Steroid 5α-reductase): 2%; inhibition at 10 µM (Xanthine oxidase): 7%; % inhibition at 10 μM [13]: 11%; % inhibition at 10 μM [14]: 19%; inhibition at 10 µM (Dopamine D2S): 15%; inhibition at 10 µM (Dopamine D3): -3%; % inhibition at 10 μM (GABAA, chloride channel): 45%; % inhibition at 10 μM [15]: 12%; inhibition at 10 µM (GABAB1B): 6%; inhibition at 10 µM (Serotonin 5-HT2A): 20%; % inhibition at 10 μM (Transporter, GABA): -7%; inhibition at 10 µM [16]: 17%; concentration without inhibition of [3H]‐NMS binding relative to that required for procognitive efficacy (human M1R): up to 100 fold; inhibition of [3H]‐NMS binding to M1R (human M1R; T‐495 concentrations below 30 μmol/L): did not inhibit
